# According to patent publication US20190175519A1, “Naloxone Transdermal Delivery Devices and Methods for Using the Same” (Teikoku Pharma USA, Inc., priority 2017, published 2019):
# Assay: Pharmacokinetics of transdermal naloxone formulations compared to intravenously administered naloxone
# Set-up: species or system Gottingen mini-pigs
# Conditions: female, Gottingen, minipig, in vivo; IV bolus 0.01 mg/kg via marginal ear vein; first time point collected; post dose
# Text: The purpose of this study was to determine the dermal irritation and pharmacokinetics of two transdermal naloxone formulations when worn for three days by naïve female Gottingen mini-pigs and to compare the pharmacokinetic transdermal profiles to the PK of intravenously (IV) administered naloxone.
# Test materials (Naloxone Transdermal Formulations 1 & 2) were in the form of a single patch that was applied to the prepared skin site of the animals and remained on for a period of three (3) days.
# The positive control article (marketed formulation), Naloxone (Narcan 0.4 mg/mL) was diluted with sterile 0.9% normal saline to a concentration of 0.04 mg/mL in order to achieve a desired dose volume of 0.25 mL/kg and dosage of 0.01 mg/kg. […]
# Group 3: Narcan intravenous formulation (0.4 mg/mL) was diluted with sterile 0.9% normal saline to a concentration of 0.04 mg/mL. The dose volumes were calculated using the individual body weights of the pigs on the day of dosing. […]
# The time of Test Material patch application and removal were recorded for each animal so that dermal scoring and PK time-points were calculated. The time of intravenous injection was also recorded so that PK time-points were calculated.
smiles,measurement,value
"C=CCN1CC[C@]23c4c5ccc(O)c4O[C@H]2C(=O)CC[C@@]3(O)[C@H]1C5 [Naloxone, 17-allyl-4,5α-epoxy-3,14-dihydroxymorphinan-6-one]",Tmax,5 min
